# Assay results published in US20240391965A1, “STAPLED ANTIMICROBIAL PEPTIDES (STAMPS) AND USES THEREOF” (Lytica Therapeutics, Inc., priority 2021, published 2024).
# Starred links: 1 amine or outer side, 2 acyl side, 3 side chain; linkers in the order of their positions; H or OH if unused. Positions of bridges follow the written chain, without caps; N, C: chain ends. Residues, ends and D or L forms follow the SMILES beside them. 2,2'Bipyridine(5,5'-diCH2) = c1cc(-c2ccc(C[*:2])cn2)ncc1C[*:1]; pXylylene = c1cc(C[*:2])ccc1C[*:1]; X1 = C(=CC[*:2])C[*:1]
# What was measured:
# [1] = 90 minute cytotoxicity assay (LDH release), renal toxicity; format: cell-based; details: 90 minutes of incubation, LDH release; read-out: Inhibitory Concentration at 50% Cytotoxicity (IC50) Human Renal Proximal Tubule Epithelial Cells (RPTEC)
# In short: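 Released lactate dehydrogenase, read as absorbance at 490 nm after 10 min with assay reagent, serves as read-out. Renal proximal tubule epithelial cells received peptide serial dilutions or vehicle for 90 min at 37° C after overnight plating.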
# [2] = system: Acinetobacter baumannii (A. baumannii); format: cell-based; details: microbroth dilution, 20-24 hours at 37° C.
# In short: (§1)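 Visual growth read-out after 20-24 h at 37 °C defines the MIC. Inoculum: 5×10^5 CFU/ml of regrown (3-4 h) bacteria in MHB or MHB II, against serial peptide dilutions, following an adapted CLSI protocol.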
# [3] = system: Pseudomonas aeruginosa (P. aeruginosa); format: cell-based; details: microbroth dilution, 20-24 hours at 37° C.
# In short: as §1
# [4] = system: Klebsiella pneumoniae (K. pneumoniae); format: cell-based; details: microbroth dilution, 20-24 hours at 37° C.
# In short: as §1
# [5] = system: Staphylococcus aureus (S. aureus); format: cell-based; details: microbroth dilution, 20-24 hours at 37° C.
# In short: as §1
# [6] = system: Escherichia coli (E. coli); format: cell-based; details: microbroth dilution, 20-24 hours at 37° C.
# In short: as §1
# [7] = 48 hours cytotoxicity assay (CellTiter-Glo), liver toxicity; format: cell-based, human; details: 48 hours of incubation, CellTiter-Glo; read-out: Inhibitory Concentration at 50% Cytotoxicity (IC50) Human Liver Cells (HepG2)
# In short: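 Viability from CellTiter-Glo luminescence after StAMP dilution series or vehicle acted on HepG2 cells for 48 h at 37 °C. Cells were grown in EMEM plus 10% FBS and given 4 h to attach before dosing.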
SMILES,IC50 [1] [µg/mL],Minimum Inhibitory Concentration (MIC) A. baumannii [2] [µg/mL],Minimum Inhibitory Concentration (MIC) P. aeruginosa [3] [µg/mL],Minimum Inhibitory Concentration (MIC) K. pneumoniae [4] [µg/mL],Minimum Inhibitory Concentration (MIC) S. aureus [5] [µg/mL],Minimum Inhibitory Concentration (MIC) E. coli [6] [µg/mL],IC50 [7] [µg/mL]
CC[C@H](C)[C@H](NC(=O)CN)C(=O)N[C@@H](Cc1ccccc1)C(=O)N[C@@H](CO)C(=O)N[C@@H](CCCCN)C(=O)N[C@@H](CC(C)C)C(=O)N[C@@H](C)C(=O)NCC(=O)N[C@@H](CCCCN)C(=O)N[C@@H](CCCCN)C(=O)N[C@H]1CSCC=CCSC[C@@H](C(=O)N[C@H](C(=O)N[C@@H](CO)C(=O)NCC(=O)N[C@@H](CC(C)C)C(=O)N[C@@H](CCCCN)C(=O)NCC(N)=O)[C@@H](C)CC)NC(=O)[C@H](CC(C)C)NC(=O)[C@H](CC(N)=O)NC(=O)[C@H](CCCCN)NC1=O [compound 19] (H-GIFSKLAGKKCKNLCISGLKG-NH2; linker 11-15 via X1),> 200,>64,>64,>64,>64,>64,> 200
"CC[C@H](C)[C@H](NC(=O)CN)C(=O)N[C@H]1CSCc2ccc(nc2)-c2ccc(cn2)CSC[C@@H](C(=O)N[C@H](C(=O)N[C@@H](CCCCN)C(=O)N[C@@H](CC(N)=O)C(=O)N[C@@H](CC(C)C)C(=O)N[C@@H](CC(C)C)C(=O)N[C@H](C(=O)N[C@@H](CO)C(=O)NCC(=O)N[C@@H](CC(C)C)C(=O)N[C@@H](CCCCN)C(=O)NCC(N)=O)[C@@H](C)CC)[C@@H](C)CC)NC(=O)[C@H](CCCCN)NC(=O)CNC(=O)[C@H](C)NC(=O)[C@H](CC(C)C)NC(=O)[C@H](CCCCN)NC(=O)[C@H](CO)NC1=O [compound 54] (H-GICSKLAGKCIKNLLISGLKG-NH2; linker 3-10 via 2,2'Bipyridine(5,5'-diCH2); N-terminus assumed)",81,8,64,16,64,8,43
CC[C@H](C)[C@H](NC(=O)CN)C(=O)N[C@@H](Cc1ccccc1)C(=O)N[C@@H](CO)C(=O)N[C@@H](CCCCN)C(=O)N[C@@H](CC(C)C)C(=O)N[C@@H](C)C(=O)NCC(=O)N[C@@H](CCCCN)C(=O)N[C@@H](CCCCN)C(=O)N[C@H](C(=O)N[C@@H](CCCCN)C(=O)N[C@@H](CC(N)=O)C(=O)N[C@@H](CC(C)C)C(=O)N[C@@H](CC(C)C)C(=O)N[C@H]1CSCc2ccc(cc2)CSC[C@@H](C(=O)NCC(N)=O)NC(=O)[C@H](CC(C)C)NC(=O)CNC(=O)[C@H](CO)NC1=O)[C@@H](C)CC [compound 33] (H-GIFSKLAGKKIKNLLCSGLCG-NH2; linker 16-20 via pXylylene),59,4,16,8,64,4,57
